{"source": "patent US4465672A", "about": "“Stable S-adenosylmethionine salts, the process for their preparation, and therapeutic compositions which contain them as active principle” (Bioresearch S.p.A., priority 1981, dated 1984)", "key": {"[1]": {"test": "Residual moisture of the lyophilised salt", "assay_type": "physicochemical"}, "physchem": {"test": "physchem", "conditions": "for DEGRADATION AT 45° C. AFTER 60 days: 1440 h; for DEGRADATION AT 45° C. AFTER 120 days: 2880 h; for DEGRADATION AT 45° C. AFTER 180 days: 4320 h; for DEGRADATION AT 45° C. AFTER 240 days: 5760 h; for DEGRADATION AT 45° C. AFTER 360 days: 8640 h", "procedure": "The residual SAM percentage at the times indicated was determined by the new method described hereinafter, which ensures maximum accuracy of measurements in that it enables the SAM to be totally separated from all possible degradation products. The present method for determining the SAM is based on the use of HPLC."}, "[2]": {"conditions": "prior art salts, cited from earlier work"}, "[3]": {"test": "Wide pharmacological screening trial", "conditions": "independent of the anion bonded to the SAM"}}, "note": "Read-outs that look alike come from different tables or passages of the source."}
{"smiles": "C[S+](CCC(N)C(=O)[O-])CC1OC(n2cnc3c(N)ncnc32)C(O)C1O", "note": "(stereo not drawn) [drawing 5, n=6]", "values": [{"measurement": "residual moisture", "setting": "[1]; Tables 1 to 4", "result": 2, "unit": "%"}]}
{"smiles": "C[S+](CCC(N)C(=O)[O-])CC1OC(n2cnc3c(N)ncnc32)C(O)C1O", "note": "(stereo not drawn) [SAM.n CH3 SO3 H, n=1]", "values": [{"measurement": "residual moisture", "setting": "[1]; Tables 1 to 4", "result": 0.2, "unit": "%"}, {"measurement": "DEGRADATION AT 45° C. AFTER 60 days", "setting": "physchem", "result": 100, "unit": "%"}, {"measurement": "DEGRADATION AT 45° C. AFTER 120 days", "setting": "physchem", "result": 100, "unit": "%"}, {"measurement": "DEGRADATION AT 45° C. AFTER 180 days", "setting": "physchem", "result": 100, "unit": "%"}, {"measurement": "DEGRADATION AT 45° C. AFTER 240 days", "setting": "physchem", "result": 100, "unit": "%"}, {"measurement": "DEGRADATION AT 45° C. AFTER 360 days", "setting": "physchem", "result": 100, "unit": "%"}]}
{"smiles": "C[S+](CCC(N)C(=O)[O-])CC1OC(n2cnc3c(N)ncnc32)C(O)C1O", "note": "(stereo not drawn) [SAM.1.5 H2 SO4.n CH3 SO3 H, n=2]", "values": [{"measurement": "residual moisture", "setting": "[1]; Tables 1 to 4", "result": 1.5, "unit": "%"}]}
{"smiles": "C[S+](CCC(N)C(=O)[O-])CC1OC(n2cnc3c(N)ncnc32)C(O)C1O", "note": "(stereo not drawn) [drawing 5, n=3]", "values": [{"measurement": "temperature up to which the salt is stable", "setting": "[2]; listed as triparatoluene sulphonate", "result": "up to 25 °C"}, {"measurement": "residual moisture", "setting": "[1]; Tables 1 to 4", "result": 0.8, "unit": "%"}, {"measurement": "DEGRADATION AT 45° C. AFTER 240 days", "setting": "physchem", "result": 100, "unit": "%"}, {"measurement": "DEGRADATION AT 45° C. AFTER 360 days", "setting": "physchem", "result": 100, "unit": "%"}]}
{"smiles": "C[S+](CCC(N)C(=O)[O-])CC1OC(n2cnc3c(N)ncnc32)C(O)C1O", "note": "(stereo not drawn) [SAM.1.5 H2 SO4.n CH3 SO3 H, n=3]", "values": [{"measurement": "residual moisture", "setting": "[1]; Tables 1 to 4", "result": 2, "unit": "%"}]}
{"smiles": "C[S+](CCC(N)C(=O)[O-])CC1OC(n2cnc3c(N)ncnc32)C(O)C1O", "note": "(stereo not drawn) [SAM.n CH3 SO3 H, n=3]", "values": [{"measurement": "residual moisture", "setting": "[1]; Tables 1 to 4", "result": 0.8, "unit": "%"}, {"measurement": "DEGRADATION AT 45° C. AFTER 240 days", "setting": "physchem", "result": 100, "unit": "%"}, {"measurement": "DEGRADATION AT 45° C. AFTER 360 days", "setting": "physchem", "result": 100, "unit": "%"}]}
{"smiles": "C[S+](CCC(N)C(=O)[O-])CC1OC(n2cnc3c(N)ncnc32)C(O)C1O", "note": "(stereo not drawn) [SAM.n CH3 SO3 H, n=2]", "values": [{"measurement": "residual moisture", "setting": "[1]; Tables 1 to 4", "result": 0.5, "unit": "%"}, {"measurement": "DEGRADATION AT 45° C. AFTER 120 days", "setting": "physchem", "result": 100, "unit": "%"}, {"measurement": "DEGRADATION AT 45° C. AFTER 180 days", "setting": "physchem", "result": 100, "unit": "%"}, {"measurement": "DEGRADATION AT 45° C. AFTER 240 days", "setting": "physchem", "result": 100, "unit": "%"}, {"measurement": "DEGRADATION AT 45° C. AFTER 360 days", "setting": "physchem", "result": 100, "unit": "%"}]}
{"smiles": "C[S+](CCC(N)C(=O)[O-])CC1OC(n2cnc3c(N)ncnc32)C(O)C1O", "note": "(stereo not drawn) [SAM.n CH3 SO3 H, n=4]", "values": [{"measurement": "residual moisture", "setting": "[1]; Tables 1 to 4", "result": 1, "unit": "%"}]}
{"smiles": "C[S+](CCC(N)C(=O)[O-])CC1OC(n2cnc3c(N)ncnc32)C(O)C1O", "note": "(stereo not drawn) [drawing 6, n=1]", "values": [{"measurement": "residual moisture", "setting": "[1]; Tables 1 to 4", "result": 1, "unit": "%"}]}
{"smiles": "C[S+](CCC(N)C(=O)[O-])CC1OC(n2cnc3c(N)ncnc32)C(O)C1O", "note": "(stereo not drawn) [drawing 5, n=4]", "values": [{"measurement": "residual moisture", "setting": "[1]; Tables 1 to 4", "result": 1, "unit": "%"}]}
{"smiles": "C[S+](CCC(N)C(=O)[O-])CC1OC(n2cnc3c(N)ncnc32)C(O)C1O", "note": "(stereo not drawn) [disulphatediparatoluene sulphonate, reference compound]", "values": [{"measurement": "temperature up to which the salt is stable", "setting": "[2]", "result": "up to 45 °C"}]}
{"smiles": "C[S+](CCC(N)C(=O)[O-])CC1OC(n2cnc3c(N)ncnc32)C(O)C1O", "note": "(stereo not drawn) [SAM.5CH3 --C6 H4 --SO3 H]", "values": [{"measurement": "residual moisture", "setting": "[1]; Tables 1 to 4, n=5", "result": 1.5, "unit": "%"}]}
{"smiles": "C[S+](CCC(N)C(=O)[O-])CC1OC(n2cnc3c(N)ncnc32)C(O)C1O", "note": "(stereo not drawn) [SAM.1.5 H2 SO4.n CH3 SO3 H, n=1]", "values": [{"measurement": "residual moisture", "setting": "[1]; Tables 1 to 4", "result": 1, "unit": "%"}]}
{"smiles": "C[S+](CCC(N)C(=O)[O-])CC1OC(n2cnc3c(N)ncnc32)C(O)C1O", "note": "(stereo not drawn) [drawing 5, n=1]", "values": [{"measurement": "residual moisture", "setting": "[1]; Tables 1 to 4", "result": 0.2, "unit": "%"}, {"measurement": "DEGRADATION AT 45° C. AFTER 60 days", "setting": "physchem", "result": 100, "unit": "%"}, {"measurement": "DEGRADATION AT 45° C. AFTER 120 days", "setting": "physchem", "result": 100, "unit": "%"}, {"measurement": "DEGRADATION AT 45° C. AFTER 180 days", "setting": "physchem", "result": 100, "unit": "%"}, {"measurement": "DEGRADATION AT 45° C. AFTER 240 days", "setting": "physchem", "result": 100, "unit": "%"}, {"measurement": "DEGRADATION AT 45° C. AFTER 360 days", "setting": "physchem", "result": 100, "unit": "%"}]}
{"smiles": "C[S+](CCC(N)C(=O)[O-])CC1OC(n2cnc3c(N)ncnc32)C(O)C1O", "note": "(stereo not drawn) [SAM.5CH3 SO3 H]", "values": [{"measurement": "residual moisture", "setting": "[1]; Tables 1 to 4, listed as SAM.n CH3 SO3 H, n=5", "result": 1.5, "unit": "%"}, {"measurement": "residual moisture", "setting": "[1]; with or without lyophilisation support (Tables 5, 6)", "result": 1.5, "unit": "%"}, {"measurement": "degraded at 8640 h", "setting": "physchem; DEGRADATION AT 45° C. AFTER 360 DAYS", "result": 5, "unit": "%"}, {"measurement": "activity and toxicity characteristics", "setting": "[3]", "result": "highly interesting activity and toxicity characteristics"}]}
{"smiles": "C[S+](CCC(N)C(=O)[O-])CC1OC(n2cnc3c(N)ncnc32)C(O)C1O", "note": "(stereo not drawn) [drawing 5, n=2]", "values": [{"measurement": "residual moisture", "setting": "[1]; Tables 1 to 4", "result": 0.5, "unit": "%"}, {"measurement": "DEGRADATION AT 45° C. AFTER 120 days", "setting": "physchem", "result": 100, "unit": "%"}, {"measurement": "DEGRADATION AT 45° C. AFTER 180 days", "setting": "physchem", "result": 100, "unit": "%"}, {"measurement": "DEGRADATION AT 45° C. AFTER 240 days", "setting": "physchem", "result": 100, "unit": "%"}, {"measurement": "DEGRADATION AT 45° C. AFTER 360 days", "setting": "physchem", "result": 100, "unit": "%"}]}
{"smiles": "C[S+](CCC(N)C(=O)[O-])CC1OC(n2cnc3c(N)ncnc32)C(O)C1O", "note": "(stereo not drawn) [drawing 6, n=3]", "values": [{"measurement": "residual moisture", "setting": "[1]; Tables 1 to 4", "result": 2, "unit": "%"}]}
{"smiles": "C[S+](CCC(N)C(=O)[O-])CC1OC(n2cnc3c(N)ncnc32)C(O)C1O", "note": "(stereo not drawn) [SAM.n CH3 SO3 H, n=6]", "values": [{"measurement": "residual moisture", "setting": "[1]; Tables 1 to 4", "result": 2, "unit": "%"}]}
{"smiles": "C[S+](CCC(N)C(=O)[O-])CC1OC(n2cnc3c(N)ncnc32)C(O)C1O", "note": "(stereo not drawn) [drawing 6, n=2]", "values": [{"measurement": "residual moisture", "setting": "[1]; Tables 1 to 4", "result": 1.5, "unit": "%"}]}
